In this data set the test system is Dkk1-LRP5-TCF-Luciferase. Briefly: Functional Dkk1-LRP5-TCF-Luciferase Assay in U2OS Cells. Particulars: for EC50 / fold induction at 2 µM / fold induction at 20 µM: Homo sapiens, U2OS; for fold induction at 2 µM: read-out: B = TCF ACTIVITY/DMSO CONTROL Fold induction @ 2.0 uM, 2.0 uM compound; for fold induction at 20 µM: read-out: C = TCF ACTIVITY/DMSO CONTROL Fold induction @ 20.0 uM, 20.0 uM compound; for A = MAX FOLD Induction/DMSO CONTROL: maximum fold induction over DMSO control.

The values below come from patent US20090054392A1, “NAPHTHYLPYRIMIDINE, NAPHTHYLPYRAZINE AND NAPHTHYLPYRIDAZINE ANALOGS AND THEIR USE AS AGONISTS OF THE WNT-BETA-CATENIN CELLULAR MESSAGING SYSTEM” (Wyeth, priority 2007, published 2009).

Broadly, the EC50 is the midpoint of the concentration-response curve. A high value points to a less potent agent. Take `NCC1CCN(c2nccc(-c3ccc4ccccc4c3)n2)CC1` [({1-[4-(2-naphthyl)pyrimidin-2-yl]piperidin-4-yl}methyl)amine]: a half-maximal effect (EC50) was put at 1.98 µM, the fold induction at 2 µM came out at 2.23, the fold induction at 20 µM was determined as 0.143 and the “A = MAX FOLD Induction/DMSO CONTROL” value came to 3.390 fold.
On to `CN(C)C(=O)[C@@H]1CCCN1c1nccc(-c2ccc3ccccc3c2)n1` [N,N-dimethyl-1-[4-(2-naphthyl)pyrimidin-2-yl]-L-prolinamide], for which the fold induction at 2 µM stood at 1 and the fold induction at 20 µM came to 1.24.
For the molecule `NCC1CCN(c2nccc(-c3ccc4ccccc4c3)n2)c2ccccc21` (stereo not drawn) [1-{1-[4-(2-naphthyl)pyrimidin-2-yl]-1,2,3,4-tetrahydroquinolin-4-yl}methanamine], the “A = MAX FOLD Induction/DMSO CONTROL” value stood at 1.820 fold.
As to `CC(C)(C)N[C@H]1CCN(c2nccc(-c3ccc4ccccc4c3)n2)C1` [(3S)—N-(tert-butyl)-1-[4-(2-naphthyl)pyrimidin-2-yl]pyrrolidin-3-amine], the fold induction at 2 µM amounted to 2.39 and the “A = MAX FOLD Induction/DMSO CONTROL” value is on record as 2.690 fold.
`O=CC1CCN(c2nccc(-c3ccc4ccccc4c3)n2)CC1` [1-[4-(2-naphthyl)pyrimidin-2-yl]piperidine-4-carbaldehyde]: the fold induction at 2 µM is 1.51 and the fold induction at 20 µM is 0.25.
For the molecule `CC(C)(C)OC(=O)N[C@H](CO)C1CCN(c2nccc(-c3ccc4ccccc4c3)n2)CC1` [tert-butyl ((1S)-2-hydroxy-1-{1-[4-(2-naphthyl)pyrimidin-2-yl]piperidin-4-yl}ethyl)carbamate], the fold induction at 2 µM was 1.22 and the fold induction at 20 µM was 0.44.
Consider `O=C(N1CCCC1)N1CCC(Nc2nccc(-c3ccc4ccccc4c3)n2)CC1` [4-(2-naphthyl)-N-[1-(pyrrolidin-1-ylcarbonyl)piperidin-4-yl]pyrimidin-2-amine], for which the fold induction at 2 µM was 1.06 and the fold induction at 20 µM was found to be 0.96.
Turning to `CN1CCN(CC2CCN(c3nccc(-c4ccc5ccccc5c4)n3)CC2)CC1` [2-{4-[(4-methylpiperazin-1-yl)methyl]piperidin-1-yl}-4-(2-naphthyl)pyrimidine], the EC50 came out at 1.19 µM, the fold induction at 2 µM is 5.46 and the “A = MAX FOLD Induction/DMSO CONTROL” value is on record as 5.430 fold.
As to `NCC[C@H]1CCCN1c1nccc(-c2ccc3ccccc3c2)n1` [2-{(2R)-1-[4-(2-naphthyl)pyrimidin-2-yl]pyrrolidin-2-yl}ethanamine], the fold induction at 2 µM stood at 2.72, the fold induction at 20 µM amounted to 0.01 and the “A = MAX FOLD Induction/DMSO CONTROL” value was determined as 2.270 fold.
On to `CCNC(=O)NCCC1CCN(c2nccc(-c3ccc4ccccc4c3)n2)CC1` [N-ethyl-N′-(2-{1-[4-(2-naphthyl)pyrimidin-2-yl]piperidin-4-yl}ethyl)urea], for which the fold induction at 2 µM was found to be 1.78 and the fold induction at 20 µM was determined as 1.87.
For the molecule `Cc1ccc(S(=O)(=O)N[C@@H]2CCN(c3nccc(-c4ccc5ccccc5c4)n3)C2)cc1` [4-methyl-N-{(3R)-1-[4-(2-naphthyl)pyrimidin-2-yl]pyrrolidin-3-yl}benzenesulfonamide], the fold induction at 2 µM is 1.44 and the fold induction at 20 µM was 0.09.
For `CS(=O)(=O)NC1CCCN(c2nccc(-c3ccc4ccccc4c3)n2)CC1` (stereo not drawn) [N-{1-[4-(2-naphthyl)pyrimidin-2-yl]azepan-4-yl}methanesulfonamide], the fold induction at 2 µM came out at 2.04, the fold induction at 20 µM turned out to be 2.21 and the “A = MAX FOLD Induction/DMSO CONTROL” value is recorded as 1.120 fold.
In the case of `c1ccc2cc(-c3ccnc(N4CCC(CN5CCOCC5)C4)n3)ccc2c1` (stereo not drawn) [4-({1-[4-(2-naphthyl)pyrimidin-2-yl]pyrrolidin-3-yl}methyl)morpholine], the midpoint of the response, the EC50, lay at 4.8 µM; the fold induction at 2 µM turned out to be 1.07; the fold induction at 20 µM is 3.1; the “A = MAX FOLD Induction/DMSO CONTROL” value came out at 2.990 fold.
Turning to `CN(C)CCN(C)[C@@H]1CCN(c2nccc(-c3ccc4ccccc4c3)n2)C1` [N,N,N′-trimethyl-N′-{(3R)-1-[4-(2-naphthyl)pyrimidin-2-yl]pyrrolidin-3-yl}ethane-1,2-diamine], the fold induction at 2 µM stood at 2.4.
For the molecule `CN(C[C@@H]1CCN(c2nccc(-c3ccc4ccccc4c3)n2)C1)C1CCCCC1` [N-methyl-N-({(3S)-1-[4-(2-naphthyl)pyrimidin-2-yl]pyrrolidin-3-yl}methyl)cyclohexanamine], the fold induction at 2 µM was 1.37, the fold induction at 20 µM was found to be 2.27 and the “A = MAX FOLD Induction/DMSO CONTROL” value stood at 3.720 fold.
Take `CN(C)C(=O)NCC1CCN(c2nccc(-c3ccc4ccccc4c3)n2)CC1` [N,N-dimethyl-N′-({1-[4-(2-naphthyl)pyrimidin-2-yl]piperidin-4-yl}methyl)urea]: a half-maximal response (EC50) required 4.03 µM, the fold induction at 2 µM is 1.12, the fold induction at 20 µM was 2.36 and the “A = MAX FOLD Induction/DMSO CONTROL” value came to 1.690 fold.
For the molecule `Cc1ccc(S(=O)(=O)N2CC[C@@H](Nc3nccc(-c4ccc5ccccc5c4)n3)C2)cc1` [N-{(3R)-1-[(4-methylphenyl)sulfonyl]pyrrolidin-3-yl}-4-(2-naphthyl)pyrimidin-2-amine], the fold induction at 20 µM amounted to 1.58.
Take `CC(C)(C)OC(=O)NCCC1CN(c2nccc(-c3ccc4ccccc4c3)n2)C1` [tert-butyl {2-[1-(4-naphthalen-2-ylpyrimidin-2-yl)azetidin-3-yl]ethyl}carbamate]: the fold induction at 20 µM was 1.6.
For the molecule `CN(C)c1cccc2c(S(=O)(=O)N[C@H]3CC[C@H](Nc4nccc(-c5ccc6ccccc6c5)n4)CC3)cccc12` [5-(dimethylamino)-N-(trans-4-{[4-(2-naphthyl)pyrimidin-2-yl]amino}cyclohexyl)naphthalene-1-sulfonamide], the fold induction at 2 µM was 1.43 and the fold induction at 20 µM amounted to 1.34.
On to `CS(=O)(=O)N1CC[C@@H](Nc2nccc(-c3ccc4ccccc4c3)n2)C1` [N-[(3R)-1-(methylsulfonyl)pyrrolidin-3-yl]-4-(2-naphthyl)pyrimidin-2-amine], for which the EC50 stood at 3.55 µM, the fold induction at 20 µM was 3.46 and the “A = MAX FOLD Induction/DMSO CONTROL” value is on record as 3.380 fold.
Regarding `COC(=O)N[C@H]1CC[C@H](Nc2nccc(-c3ccc4ccccc4c3)n2)CC1` [methyl (trans-4-{[4-(2-naphthyl)pyrimidin-2-yl]amino}cyclohexyl)carbamate], the EC50 turned out to be 12.3 µM, the fold induction at 2 µM came to 2.53, the fold induction at 20 µM is 1.66 and the “A = MAX FOLD Induction/DMSO CONTROL” value was 2.490 fold.
Turning to `COC(=O)N[C@@H]1CCN(c2nccc(-c3ccc4ccccc4c3)n2)C1` [methyl {(3R)-1-[4-(2-naphthyl)pyrimidin-2-yl]pyrrolidin-3-yl}carbamate], the fold induction at 2 µM was 2.2, the fold induction at 20 µM was 0.43 and the “A = MAX FOLD Induction/DMSO CONTROL” value was 0.890 fold.
On to `CN(c1nccc(-c2ccc3ccccc3c2)n1)C1CCN(Cc2ccccc2)CC1` [N-(1-benzylpiperidin-4-yl)-N-methyl-4-(2-naphthyl)pyrimidin-2-amine], for which the fold induction at 2 µM was determined as 1.55 and the fold induction at 20 µM came to 1.24.
Turning to `CN(C)[C@@H]1CCN(c2nccc(-c3ccc4ccccc4c3)n2)C1` [(3R)—N,N-dimethyl-1-[4-(2-naphthyl)pyrimidin-2-yl]pyrrolidin-3-amine], the half-maximal effective concentration (EC50) is 3.56 µM, the fold induction at 2 µM came to 2.88, the fold induction at 20 µM is 0.065 and the “A = MAX FOLD Induction/DMSO CONTROL” value is recorded as 5.193 fold.
Regarding `CC1(C)OC(=O)N[C@@H]1C1CCN(c2nccc(-c3ccc4ccccc4c3)n2)CC1` [(4R)-5,5-dimethyl-4-{1-[4-(2-naphthyl)pyrimidin-2-yl]piperidin-4-yl}-1,3-oxazolidin-2-one], the fold induction at 2 µM worked out at 1.98, the fold induction at 20 µM amounted to 1.39 and the “A = MAX FOLD Induction/DMSO CONTROL” value was 1.585 fold.
In the case of `CS(=O)(=O)N[C@H]1CC[C@H](Nc2nccc(-c3ccc4ccccc4c3)n2)CC1` [N-(trans-4-{[4-(2-naphthyl)pyrimidin-2-yl]amino}cyclohexyl)methanesulfonamide], the EC50 was 3.3 µM, the fold induction at 2 µM came to 1.79, the fold induction at 20 µM was found to be 2.38 and the “A = MAX FOLD Induction/DMSO CONTROL” value worked out at 2.940 fold.
For `c1ccc2cc(-c3ccnc(N4CC[C@H](NCCN5CCOCC5)C4)n3)ccc2c1` [(3S)—N-(2-morpholin-4-ylethyl)-1-[4-(2-naphthyl)pyrimidin-2-yl]pyrrolidin-3-amine], the fold induction at 2 µM was determined as 1.39 and the fold induction at 20 µM is 0.91.
Take `CN(c1nccc(-c2ccc3ccccc3c2)n1)C1CCN(C(=O)OC(C)(C)C)CC1` [tert-butyl 4-{methyl[4-(2-naphthyl)pyrimidin-2-yl]amino}piperidine-1-carboxylate]: the fold induction at 2 µM was determined as 0.98 and the fold induction at 20 µM turned out to be 1.92.
Take `O=C(Cc1ccccc1)N1CCC(CNc2nccc(-c3ccc4ccccc4c3)n2)CC1` [4-(2-naphthyl)-N-{[1-(phenylacetyl)piperidin-4-yl]methyl}pyrimidin-2-amine]: the fold induction at 2 µM was 1.03 and the fold induction at 20 µM came to 1.87.
With `CCC(=O)N1CCCN(c2nccc(-c3ccc4ccccc4c3)n2)CC1` [1-[4-(2-naphthyl)pyrimidin-2-yl]-4-propionyl-1,4-diazepane], the midpoint of the response, the EC50, lay at 28.5 µM; the fold induction at 20 µM came out at 2.23; the “A = MAX FOLD Induction/DMSO CONTROL” value came out at 2.260 fold.
On to `O=C(N1CC(CNc2nccc(-c3ccc4ccccc4c3)n2)C1)C(F)(F)F` [4-(2-naphthyl)-N-{[1-(trifluoroacetyl)azetidin-3-yl]methyl}pyrimidin-2-amine], for which the fold induction at 2 µM is 1.5.
Regarding `c1cncc(CNc2nccc(-c3ccc4ccccc4c3)n2)c1` [4-(2-naphthyl)-N-(pyridin-3-ylmethyl)pyrimidin-2-amine], the EC50 was 5.9 µM, the fold induction at 2 µM is 1.55, the fold induction at 20 µM came to 1.41 and the “A = MAX FOLD Induction/DMSO CONTROL” value came to 1.960 fold.
